The compounds below were run on Caco-2 (assay: Antiproliferative activity against human Caco-2 cells assessed as cell viability by MTT assay after 48 hrs). Conditions: not given.
Assay type: functional
`CN1CCN(CCCOc2ccc(C3O[C@H](c4ccccc4)[C@@H](c4ccccc4)O3)cc2)CC1` (relative stereo) showed an IC10 of 19.5 µM.
`c1ccc(C(CCCCN2CCN(CCCOc3ccc(C4O[C@@H](c5ccccc5)[C@H](c5ccccc5)O4)cc3)CC2)c2ccccc2)cc1` (relative stereo) was tested, and the IC10 was 15.9 µM.

Same assay, conditions: Homo sapiens, Caco-2, 48 h; read-out: IC10
With `CC1OC(c2ccccc2)(c2ccccc2)OCC1CN1CCN(CCCCC(c2ccccc2)c2ccccc2)CC1` (configuration not stated) the IC10 was 6.1 µM.
Work on `c1ccc(C(CN2CCN(CCCOc3ccc(C4OC(c5ccccc5)C(c5ccccc5)O4)cc3)CC2)c2ccccc2)cc1` (configuration not stated) yielded an IC10 of 6.1 µM.
With `c1ccc(C(CCCCN2CCN(CCCOc3ccc(C4O[C@@H](c5ccccc5)[C@H](c5ccccc5)O4)cc3)CC2)c2ccccc2)cc1` the IC10 was 17.1 µM.
`CN1CCN(CCCOc2ccc(C3O[C@H](c4ccccc4)[C@@H](c4ccccc4)O3)cc2)CC1` gave an IC10 of 20.4 µM.
`c1ccc(C(CCCCN2CCN(CCCOc3ccc(C4O[C@H](c5ccccc5)[C@@H](c5ccccc5)O4)cc3)CC2)c2ccccc2)cc1` gave an IC10 of 16.2 µM.
In the case of `c1ccc(C2OC(c3ccc(OCCCN4CCCCC4)cc3)OC2c2ccccc2)cc1` (configuration not stated), the IC10 is reported as 15.3 µM.
Work on `OCCN1CCN(CCCOc2ccc(C3OC(c4ccccc4)C(c4ccccc4)O3)cc2)CC1` (configuration not stated) yielded an IC10 of 76.6 µM.
`CN1CCN(CCOc2ccc(C3OC(c4ccccc4)C(c4ccccc4)O3)cc2)CC1` (configuration not stated) showed an IC10 of 8.6 µM.
Work on `c1ccc(C(CCCN2CCN(CCCOc3ccc(C4OC(c5ccccc5)C(c5ccccc5)O4)cc3)CC2)c2ccccc2)cc1` (configuration not stated) yielded an IC10 of 12.4 µM.
Compound `c1ccc(C(CCCCN2CCN(CCCCOc3ccc(C4OC(c5ccccc5)C(c5ccccc5)O4)cc3)CC2)c2ccccc2)cc1` (configuration not stated) has an IC10 of 17.5 µM.
`c1ccc(C(CCCCN2CCN(CCOc3ccc(C4OC(c5ccccc5)C(c5ccccc5)O4)cc3)CC2)c2ccccc2)cc1` (configuration not stated) gave an IC10 of 14.7 µM.
Compound `c1ccc(C2(c3ccccc3)OCC(CCCCN3CCCCC3)O2)cc1` (configuration not stated) has an IC10 of 18.1 µM.
In the case of `CN1CCN(CCCN2c3ccccc3Sc3ccc(C(F)(F)F)cc32)CC1` [TRIFLUOPERAZINE], the IC10 is reported as 11.3 µM.
With `c1ccc(C(CCCCN2CCN(CCCCC3COC(c4ccccc4)(c4ccccc4)O3)CC2)c2ccccc2)cc1` (configuration not stated) the IC10 was 5.85 µM.
Work on `OCCN1CCN(CCCCC2COC(c3ccccc3)(c3ccccc3)O2)CC1` (configuration not stated) yielded an IC10 of 98.3 µM.
Work on `c1ccc(C(CCN2CCN(CCCOc3ccc(C4OC(c5ccccc5)C(c5ccccc5)O4)cc3)CC2)c2ccccc2)cc1` (configuration not stated) yielded an IC10 of 18.5 µM.
`CN1CCN(CCCOc2ccc(C3OC(c4ccc(F)cc4)C(c4ccc(F)cc4)O3)cc2)CC1` (configuration not stated) was tested, and the IC10 was 18.8 µM.
For `c1ccc(C2OC(c3ccc(OCCCN4CCN(C(c5ccccc5)c5ccccc5)CC4)cc3)OC2c2ccccc2)cc1` (configuration not stated), the IC10 was 16.4 µM.
`c1ccc(C(CCCCN2CCN(CCCOc3ccc(C4O[C@H](c5ccccc5)[C@H](c5ccccc5)O4)cc3)CC2)c2ccccc2)cc1` (some centres not stated) showed an IC10 of 16.8 µM.
Compound `CC1OC(c2ccccc2)(c2ccccc2)OCC1CN1CCN(C)CC1` (configuration not stated) has an IC10 of 9.7 µM.
`CN1CCN(CCCOc2ccc(C3OC(c4ccccc4Cl)C(c4ccccc4Cl)O3)cc2)CC1` (configuration not stated) showed an IC10 of 19.5 µM.
Work on `CN1CCN(CCCCOc2ccc(C3OC(c4ccccc4)C(c4ccccc4)O3)cc2)CC1` (configuration not stated) yielded an IC10 of 13.8 µM.
In the case of `CN1CCN(CCCCC2COC(c3ccccc3)(c3ccccc3)O2)CC1` (configuration not stated), the IC10 is reported as 10.5 µM.
`CN1CCN(CCCOc2ccc(C3O[C@H](c4ccccc4)[C@H](c4ccccc4)O3)cc2)CC1` (some centres not stated) was tested, and the IC10 was 21.1 µM.
Compound `CN1CCN(CCCOc2ccc(C3O[C@@H](c4ccccc4)[C@H](c4ccccc4)O3)cc2)CC1` has an IC10 of 19.9 µM.
